Read-outs that look alike come from different tables or passages of the source.
Key:
UACC903 melanoma cells = test: CellTiter Blue Cell Viability Assay in UACC903 cells; format: cell-based, human; conditions: 24 h post-treatment
Procedure: UACC903 melanoma cells were treated with vehicle (0 μM) or the indicated concentrations of BI-69A11, BI-83G10, or BI-98C11. 24 h post-treatment, cell viability was determined using the CellTiter Blue Cell Viability Assay (Promega, Madison Wis.) following the manufacturer's directions.

melanocytes = test: AKT phosphorylation and toxicity in cultured melanocytes; format: cell-based; conditions: data not shown
[1] = system: UACC 903 melanoma xenografts; test: UACC 903 melanoma xenografts in nude mice; format: in vivo
Procedure: (A) Nude mice were subcutaneously injected with UACC 903 cells and tumors were allowed to reach an approximate size of 1 mm^3 before intraperitoneal treatment was started; treatment was performed twice per week for 3 weeks with the indicated concentrations of BI-69A11. Each of the experimental groups consisted of 10 mice that were subjected to treatment with the indicated concentration of BI-69A11. […] Tumors were measured with calipers at the indicated time points. The mice were sacrificed and tumors harvested at the end of this period were measured and weighed to determine tumor volume and mass. Blue bars represent control-vehicle treated group; yellow bars represent the 5 mg/Kg treatment group; the orange and green bars represent the 1 and 2 mg/Kg treatment groups, respectively. (B) Analysis of cell death in the tumors was performed using Tunel staining. Shown are representative pictures for control tumors (right) and a treatment group (5 mg/Kg; left). (C) Quantification of Tunel staining in the different tumor groups. Samples from each of the tumors were subjected to Tunel staining which was quantified by Aperio ImageScope and confirmed by visual inspection of representative samples. The percentage of Tunel positive cells is indicated in the graph. […]
In light of the efficient cell death elicited by BI-69A11, we assessed its activity on tumor growth in mouse xenografts. […]
For the tumor studies, UACC 903 cells […] were injected subcutaneously and tumor size was monitored using calipers twice per week. […] At the end of the study, tumors were harvested, weighed and measured.
For the tunel assay and quantitative analysis, the detection of nuclei with fragmented DNA by terminal deoxyribonucleotidyl transferase-mediated dUTP nick end labeling (TUNEL) was accomplished using the ApopTag Peroxidase In situ Apoptosis Detection Kit (Chemicon, Temecula, Calif., US) according to the instructions of the manufacturer. […]

Akt1 = Akt1 (Homo sapiens, UniProt P31749); test: Akt1 inhibition, Z'-LYTE kit fluorescent-enzymatic assay; format: biochemical
Procedure: Here the top 4000 compounds out of 50000 docked compounds were selected using FlexX and Drugscore (BioSolvIT). The top 4000 docked structures were further evaluated and ranked according to Goldscore and Chemscore functions (CSCORE). A list of common 200 compounds was then selected among ranked top 700 compounds according to both scoring functions (FIG. 1B). […] The remaining 100 compounds were experimentally tested up to 30 μM against Akt1. The inhibitory activity was evaluated for the selected compounds by using Z'-LYTE™ kit assay provided by Invitrogen Corporation (19). […] Corning® 384-well low volume plates (20 μl) were used. The fluorescent-enzymatic assay has been performed following the protocol provided by Invitrogen Corporation, using a fluorescent plate reader (Victor2, Perkin-Elmer). […] C) Lineweaver-Burk Km and Km(app) evaluation for Akt1. Each measurement was performed in triplicate. […] The Ki and the Km(app) were calculated at fixed inhibitor concentrations, as reported in the text. All constant values were definitely evaluated by fitting the data to the Lineweaver-Burk plot; D) Akt1 inhibition assay using GSK-3 as a substrate. Comparison of compounds 1 and 2 (Table 1) with H89 at 10 μM. E) Dose response for compound 1. Akt (10 ng of recombinant enzyme) in 25 μl 1× kinase buffer (25 mM Tris, pH 7.5; 5 mM n-glycerol phosphate; 2 mM dithiothreitol; 0.1 mM Na3VO4; and 10 mM MgCl2), was mixed with 2.5 μl DMSO (1% stock) or MPA-D (100 μM in 1% DMSO). Samples were incubated on ice for 1.5 hours at which time 1 μg of GSK-3 fusion protein (Cell Signaling), which served as the substrate, was added followed by ATP (200 μM) to each reaction mixture. After the suspensions were incubated at 30° C. for 20 min, the reaction was terminated by the addition of 3×SDS sample buffer (187.5 mM Tris-HCl, pH 6.8; 6% SDS; 30% glycerol; 150 mM dithiothreitol; and 0.03% bromophenol blue). The samples were boiled for 5 min, and the proteins were separated on a 12% SDS polyacrylamide gel and subsequently transferred to a nitrocellulose membrane. Membranes were incubated with rabbit polyclonal anti-phospho-GSK-3α/β (Ser21/9) (Cell Signaling).
For these purposes, we initially determined the Km and the Vmax of the enzymatic reaction involving the peptide provided by the Z'-LYTE™ kit assay and Akt1 by varying the concentration of ATP. The above parameters appeared to be 7.9 μM and 0.0205 μmol min^−1 mg^−1, respectively. […] Because all our inhibitors affected the Km rather than the Vmax of the reaction (FIG. 2C), they can be truly considered ATP-competitive inhibitors of Akt1.

[2] = 0.5-2.0 mg/kg intra-peritoneally twice per week, 3 weeks

Sequence of Akt1 (P31749 whole entry): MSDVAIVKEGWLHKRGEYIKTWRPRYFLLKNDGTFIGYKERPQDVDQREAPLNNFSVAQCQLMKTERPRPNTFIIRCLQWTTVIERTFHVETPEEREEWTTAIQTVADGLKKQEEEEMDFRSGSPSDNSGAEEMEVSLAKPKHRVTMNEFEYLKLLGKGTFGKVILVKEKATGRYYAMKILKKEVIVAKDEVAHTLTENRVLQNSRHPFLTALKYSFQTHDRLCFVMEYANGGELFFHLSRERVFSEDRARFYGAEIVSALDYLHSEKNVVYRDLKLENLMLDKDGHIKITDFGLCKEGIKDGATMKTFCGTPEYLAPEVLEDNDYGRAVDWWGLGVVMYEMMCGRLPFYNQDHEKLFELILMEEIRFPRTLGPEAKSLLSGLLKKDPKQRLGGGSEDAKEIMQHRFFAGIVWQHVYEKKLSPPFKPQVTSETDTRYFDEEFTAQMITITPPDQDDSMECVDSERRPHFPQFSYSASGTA

SMILES: O=C(/C=C/c1nc2ccccc2[nH]1)c1c(O)nc2ccc(Cl)cc2c1-c1ccccc1 [Compound 2, (E)-3-(3-(1H-benzo[d]imidazol-2-yl)acryloyl)-6-chloro-4-phenylquinolin-2(1H)-one]
- viability of UACC903 cells (UACC903 melanoma cells): decreased the viability
- AKT phosphorylation in growth factor-maintained melanocytes (melanocytes; coincided with cell death): efficient inhibition of AKT phosphorylation
- toxic effect on melanocytes deprived of growth factors (melanocytes; deprived for 24 h): no longer elicit toxic effect
- growth of the melanoma tumors [1, 2]: effectively inhibits further growth
- regression of the tumors [1, 2]: efficient regression
- apoptosis in tumors by Tunel staining, compared with control tumors ([1]; treatment groups 0.5-2.0 mg/kg): higher degrees of apoptosis
- IC50 values (in words) (Akt1): low-micromolar range
- Ki (Akt1; 10 μM compound 1, 20 μM compound 2, 50 μM compound 3, increasing ATP, Lineweaver-Burk): 3.9 µM
- IC50 (Akt1; AKT1, Example 2 (Forino et al., 2005), read-out: IC50 values): 2.3 µM
- IC50 (Akt1; FIG. 2 legend, read-out: IC50 value): 4.5 µM
- type of inhibition of Akt1 (Akt1; affected Km rather than Vmax): ATP competitive inhibition
